Results: patent US20120035855A1, “METHOD OF NETWORK-BASED IDENTIFICATION FOR DRUG ACTION AND/OR SYNERGY EFFECT OF MEDICINE COMBINATION” (TSINGHUA UNIVERSITY, priority 2008, published 2012)

Tested on: Human Umbilical Vein Endothelial Cells (HUVECs)
Assay: Cell scratch experiment, inhibition of endothelial cell migration
Assay type: cell-based
Design: Ranking by experiment results: dose or concentration left out as unconfirmed
Settings: single medicine; for Ranking by experiment results: rank of migration inhibition among six medicines, 9 h
Excerpt: Experiment: cell scratch experiments were used to quantitively measure the inhibition of medicines on migration. […] Sterile operation had to be ensured during cell scrapping process. Human Umbilical Vein Endothelial Cells (HUVECs) available from Cascade Biologics (Portland, USA) were repeatably cultured with the supplier's criterions; Matrine, quercetin, emodin, evodiamine, genistein, and aconitine were purchased from National Institute for the Control of Pharmaceutical and Biological Products, and their experimental density were set at 10 mM as indicated by literature. HUVECs were cultured on 12-plate coated by 0.1% gelatin, the cells were inactivated after 2 hours under the conditions of 5% CO2, 37° C. and 10 ug/ml of Mitonycin C. Cell scraper about 1 mm in width was used to scrap on the fused surface of single-layer of cells. Standard endothelial cell growth medium (ECGM) free of medicine application was taken as control group. Pictures were taken at 6 h−10 h of medicine intervention by Nikon digital camera, with migration distance being scaled by configure software. The experiment was repeated five times. The […] ability of the medicines was measured by Migration Inhibition Rate, determined as:
Migration Inhibition Rate=(migration distance of control group−migration distance of experimental group)/migration distance of control group

| Molecule | Ranking by experiment results | inhibition on endothelial cell migration (in words) (9 h intervention, FIG. 4) |
| --- | --- | --- |
| CCN1C[C@]2(COC)[C@H](O)C[C@H](OC)[C@@]34[C@@H]5C[C@@]6(O)[C@H](OC(=O)c7ccccc7)[C@@H]5[C@@](OC(C)=O)([C@@H]([C@H](OC)[C@H]23)[C@@H]14)[C@@H](O)[C@@H]6OC [Aconitine] | 6 | – |
| Cc1cc(O)c2c(c1)C(=O)c1cc(O)cc(O)c1C2=O [Emodin] | 3 | – |
| O=c1c(-c2ccc(O)cc2)coc2cc(O)cc(O)c12 [Genistein] | 5 | – |
| O=C1CCC[C@@H]2[C@H]3CCCN4CCC[C@@H](CN12)[C@@H]34 [Matrine] | 1 | strongest inhibition |
| O=c1c(O)c(-c2ccc(O)c(O)c2)oc2cc(O)cc(O)c12 [Quercetin] | 2 | – |
| Evodiamine | 4 | – |
